“And” between values parts separate entries of the source, which are not always exact repeats. Equal values may be shown once. Read-outs that look alike come from different tables or passages of the source.
Assay: Pharmacokinetic study of Example 3 in mouse (IV, IP)
Assay type: in vivo, C57 Mouse
Settings: for AUC(0-inf): read-out: AUCINF_pred
Method: Species: C57 Mouse. Dose Route: IV&IP. Formulation Vehicle: IV&IP: 10% DMSO/30% PEG400/60% Saline. Dose Level: IV (5 mg/kg) and IP (30 mg/kg). Dose Volume: IV (5 mL/kg) and IP (10 mL/kg). Formulation concentrations: IV (1 mg/mL) and IP (3 mg/mL). LLOQ: IV (2 ng/mL) and IP (10 ng/mL).

[1] = 5 mg/kg IV, individual animals 101M-103M
[2] = 30 mg/kg IP, individual animals 201M-203M
[3] = C57, mouse, plasma, ip, 30 mg/kg, 30 mg/kg IP, individual animals 201M-203M
[4] = C57, mouse, plasma, ip, 30 mg/kg, 30 mg/kg IP, mean
[5] = C57, mouse, plasma, iv, 5 mg/kg, 5 mg/kg IV, individual animals 101M-103M
[6] = C57, mouse, plasma, iv, 5 mg/kg, 5 mg/kg IV, mean

Cc1ccc(Nc2nc(N/N=C/c3c[nH]c4ccccc34)cc(N3CCOCC3)n2)cc1 [Example 3, (E)-4-(2-((1H-indol-3-yl)methylene)hydrazinyl)-6-morpholino-N-(p-tolyl)pyrimidin-2-amine]
Plasma concentrations (5 mg/kg IV, 0.08 h, individual animals 101M-103M): 9197.2 ng/mL and 4387.4 ng/mL and 7116.5 ng/mL
Plasma concentrations (5 mg/kg IV, 0.25 h, individual animals 101M-103M): 7195.4 ng/mL and 2758.6 ng/mL and 3627.2 ng/mL
Plasma concentrations (5 mg/kg IV, 0.50 h, individual animals 101M-103M): 1641.4 ng/mL and 2830.9 ng/mL
Plasma concentrations (5 mg/kg IV, 1.00 h, individual animals 101M-103M): 944.6 ng/mL and 1358.7 ng/mL
Plasma concentrations (5 mg/kg IV, 2.00 h, individual animals 101M-103M): 355.3 ng/mL and 348.7 ng/mL
Plasma concentrations (5 mg/kg IV, 4.00 h, individual animals 101M-103M): 71.0 ng/mL and 80.3 ng/mL
Plasma concentrations (5 mg/kg IV, 8.00 h, individual animals 101M-103M): 35.2 ng/mL and 37.8 ng/mL
Plasma concentrations (5 mg/kg IV, 24.00 h, individual animals 101M-103M, LLOQ 2 ng/mL): BLQ
AUCINF_pred [1]: 3424.1 ng·h/mL and 4892.0 ng·h/mL
AUClast [1]: 3387.7 ng·h/mL and 4862.4 ng·h/mL
Cl_pred [1]: 15.2 mL/min/kg and 24.3 mL/min/kg and 17 mL/min/kg
Cmax [1]: 9197.2 ng/mL and 4387.4 ng/mL and 7116.5 ng/mL
HL_Lambda_z (T1/2, h) [1]: 0.98 h and 0.85 h
MRTlast [1]: 0.90 h and 0.77 h
Vz_pred [1]: 1.12 L/kg and 2.06 L/kg and 1.25 L/kg
Cl_pred (5 mg/kg IV, mean): 18.8 mL/min/kg
Vz_pred (5 mg/kg IV, mean): 1.48 L/kg
Plasma concentrations (30 mg/kg IP, 0.25 h, individual animals 201M-203M): 1507.7 ng/mL and 971.3 ng/mL
Plasma concentrations (30 mg/kg IP, 0.50 h, individual animals 201M-203M): 2007.7 ng/mL and 1751.8 ng/mL
Plasma concentrations (30 mg/kg IP, 1.00 h, individual animals 201M-203M): 3178.8 ng/mL and 2919.1 ng/mL
Plasma concentrations (30 mg/kg IP, 2.00 h, individual animals 201M-203M): 3158.8 ng/mL and 3638.0 ng/mL
Plasma concentrations (30 mg/kg IP, 4.00 h, individual animals 201M-203M): 2115.5 ng/mL and 1962.2 ng/mL
Plasma concentrations (30 mg/kg IP, 8.00 h, individual animals 201M-203M): 1428.1 ng/mL and 1227.0 ng/mL
Plasma concentrations (30 mg/kg IP, 24.00 h, individual animals 201M-203M): 185.0 ng/mL and 145.1 ng/mL
AUCINF_pred [2]: 29976.8 ng·h/mL and 27188.2 ng·h/mL
AUClast [2]: 28429.1 ng·h/mL and 26046.4 ng·h/mL
Cl_F_pred [2]: 22 mL/min/kg and 16.7 mL/min/kg and 18.3 mL/min/kg
Cmax [2]: 3178.8 ng/mL and 3638.0 ng/mL
F % [2]: 79.64% and 103.54% and 94.86%
HL_Lambda_z (T1/2, h) [2]: 5.85 h and 5.52 h
MRTlast [2]: 5.45 h and 5.15 h
Tmax [2]: 2.00 h
Vz_F_pred [2]: 10.11 L/kg and 8.44 L/kg and 8.78 L/kg
Cl_F_pred (30 mg/kg IP, mean): 19 mL/min/kg
Vz_F_pred (30 mg/kg IP, mean): 9.11 L/kg
concentration at 0.25 h (C57, mouse, plasma, intraperitoneal, 30 mg/kg, 30 mg/kg IP, 0.25 h, individual animals 201M-203M, read-out: Plasma concentrations): 1490 ng/mL
concentration at 0.25 h (C57, mouse, plasma, intraperitoneal, 30 mg/kg, 30 mg/kg IP, 0.25 h, mean, read-out: Plasma concentrations): 1320 ng/mL
concentration at 0.5 h (C57, mouse, plasma, intraperitoneal, 30 mg/kg, 30 mg/kg IP, 0.50 h, individual animals 201M-203M, read-out: Plasma concentrations): 2270 ng/mL
concentration at 0.5 h (C57, mouse, plasma, intraperitoneal, 30 mg/kg, 30 mg/kg IP, 0.50 h, mean, read-out: Plasma concentrations): 2010 ng/mL
concentration at 1 h (C57, mouse, plasma, intraperitoneal, 30 mg/kg, 30 mg/kg IP, 1.00 h, individual animals 201M-203M, read-out: Plasma concentrations): 2990 ng/mL
concentration at 1 h (C57, mouse, plasma, intraperitoneal, 30 mg/kg, 30 mg/kg IP, 1.00 h, mean, read-out: Plasma concentrations): 3030 ng/mL
concentration at 2 h (C57, mouse, plasma, intraperitoneal, 30 mg/kg, 30 mg/kg IP, 2.00 h, individual animals 201M-203M, read-out: Plasma concentrations): 2830 ng/mL
concentration at 2 h (C57, mouse, plasma, intraperitoneal, 30 mg/kg, 30 mg/kg IP, 2.00 h, mean, read-out: Plasma concentrations): 3210 ng/mL
concentration at 4 h (C57, mouse, plasma, intraperitoneal, 30 mg/kg, 30 mg/kg IP, 4.00 h, individual animals 201M-203M, read-out: Plasma concentrations): 1600 ng/mL
concentration at 4 h (C57, mouse, plasma, intraperitoneal, 30 mg/kg, 30 mg/kg IP, 4.00 h, mean, read-out: Plasma concentrations): 1890 ng/mL
concentration at 8 h (C57, mouse, plasma, intraperitoneal, 30 mg/kg, 30 mg/kg IP, 8.00 h, individual animals 201M-203M, read-out: Plasma concentrations): 998 ng/mL
concentration at 8 h (C57, mouse, plasma, intraperitoneal, 30 mg/kg, 30 mg/kg IP, 8.00 h, mean, read-out: Plasma concentrations): 1220 ng/mL
concentration at 24 h (C57, mouse, plasma, intraperitoneal, 30 mg/kg, 30 mg/kg IP, 24.00 h, individual animals 201M-203M, read-out: Plasma concentrations): 107 ng/mL
concentration at 24 h (C57, mouse, plasma, intraperitoneal, 30 mg/kg, 30 mg/kg IP, 24.00 h, mean, read-out: Plasma concentrations): 146 ng/mL
concentration at 0.08 h (C57, mouse, plasma, intravenous, 5 mg/kg, 5 mg/kg IV, 0.08 h, mean, read-out: Plasma concentrations): 6900 ng/mL
concentration at 0.25 h (C57, mouse, plasma, intravenous, 5 mg/kg, 5 mg/kg IV, 0.25 h, mean, read-out: Plasma concentrations): 4530 ng/mL
concentration at 0.5 h (C57, mouse, plasma, intravenous, 5 mg/kg, 5 mg/kg IV, 0.50 h, individual animals 101M-103M, read-out: Plasma concentrations): 2080 ng/mL
concentration at 0.5 h (C57, mouse, plasma, intravenous, 5 mg/kg, 5 mg/kg IV, 0.50 h, mean, read-out: Plasma concentrations): 2180 ng/mL
concentration at 1 h (C57, mouse, plasma, intravenous, 5 mg/kg, 5 mg/kg IV, 1.00 h, individual animals 101M-103M, read-out: Plasma concentrations): 1350 ng/mL
concentration at 1 h (C57, mouse, plasma, intravenous, 5 mg/kg, 5 mg/kg IV, 1.00 h, mean, read-out: Plasma concentrations): 1220 ng/mL
concentration at 2 h (C57, mouse, plasma, intravenous, 5 mg/kg, 5 mg/kg IV, 2.00 h, individual animals 101M-103M, read-out: Plasma concentrations): 309 ng/mL
concentration at 2 h (C57, mouse, plasma, intravenous, 5 mg/kg, 5 mg/kg IV, 2.00 h, mean, read-out: Plasma concentrations): 338 ng/mL
concentration at 4 h (C57, mouse, plasma, intravenous, 5 mg/kg, 5 mg/kg IV, 4.00 h, individual animals 101M-103M, read-out: Plasma concentrations): 59 ng/mL
concentration at 4 h (C57, mouse, plasma, intravenous, 5 mg/kg, 5 mg/kg IV, 4.00 h, mean, read-out: Plasma concentrations): 70.1 ng/mL
concentration at 8 h (C57, mouse, plasma, intravenous, 5 mg/kg, 5 mg/kg IV, 8.00 h, individual animals 101M-103M, read-out: Plasma concentrations): 26.5 ng/mL
concentration at 8 h (C57, mouse, plasma, intravenous, 5 mg/kg, 5 mg/kg IV, 8.00 h, mean, read-out: Plasma concentrations): 33.2 ng/mL
AUC(0-t) [3]: 21900 ng·h/mL
MRT last [3]: 4.9 h
AUC(0-inf) [3]: 22700 ng·h/mL
Cmax (C57, mouse, plasma, ip, 30 mg/kg, 30 mg/kg IP, individual animals 201M-203M, read-out: Cmax): 2990 ng/mL
half-life (C57, mouse, plasma, ip, 30 mg/kg, 30 mg/kg IP, individual animals 201M-203M, read-out: HL_Lambda_z (T1/2, h) (converted)): 5.29 h
Tmax (C57, mouse, plasma, ip, 30 mg/kg, 30 mg/kg IP, individual animals 201M-203M, read-out: Tmax): 1 h
AUC(0-t) [4]: 25400 ng·h/mL
MRT last [4]: 5.17 h
bioavailability [4]: 92.7%
AUC(0-inf) [4]: 26600 ng·h/mL
Cmax (C57, mouse, plasma, ip, 30 mg/kg, 30 mg/kg IP, mean, read-out: Cmax): 3270 ng/mL
half-life (C57, mouse, plasma, ip, 30 mg/kg, 30 mg/kg IP, mean, read-out: HL_Lambda_z (T1/2, h) (converted)): 5.55 h
Tmax (C57, mouse, plasma, ip, 30 mg/kg, 30 mg/kg IP, mean, read-out: Tmax): 1.33 h
half-life (C57, mouse, plasma, ip, 30 mg/kg, IP injection, single 30 mg/kg dose, read-out: half life (converted)): ~5.5 h
AUC(0-t) [5]: 5480 ng·h/mL
MRT last [5]: 0.63 h
AUC(0-inf) [5]: 5500 ng·h/mL
half-life (C57, mouse, plasma, iv, 5 mg/kg, 5 mg/kg IV, individual animals 101M-103M, read-out: HL_Lambda_z (T1/2, h) (converted)): 0.85 h
AUC(0-t) [6]: 4580 ng·h/mL
MRT last [6]: 0.76 h
AUC(0-inf) [6]: 4610 ng·h/mL
Cmax (C57, mouse, plasma, iv, 5 mg/kg, 5 mg/kg IV, mean, read-out: Cmax): 6900 ng/mL
half-life (C57, mouse, plasma, iv, 5 mg/kg, 5 mg/kg IV, mean, read-out: HL_Lambda_z (T1/2, h) (converted)): 0.89 h
peak concentration (IP injection, single 30 mg/kg dose): 3268 ng/mL

Source: patent US12030896B2, “PIKfyve inhibitors” (Mayo Foundation for Medical Education and Research, priority 2018, dated 2024)
